The source of these data is patent US6342501B1, “Pyrrolo[2,3-d] pyrimidines as antiviral agents” (The Regents of the University of Michigan, priority 1994, dated 2002).

Structures are written as SMILES. Like-named read-outs stand apart in the source and are kept apart here.

For series [1], the system named is human cytomegalovirus (HCMV). Nature of the series: microbe, parasite or virus in culture. Format: cell-based, Towne strain. The note with it: for IC50: Human betaherpesvirus 5, HFF, read-out: HCMV; for antiviral activity against HCMV (in words): comment on Table 1 data. The protocol:
(§1) The routine growth and passage of KB and BSC-1 cells was performed in monolayer cultures using minimal essential medium (MEM) with either Hanks salts [MEM(H)] or Earle salts [MEM(E)] supplemented with 10% calf serum. The sodium bicarbonate concentration was varied to meet the buffering capacity required. Cultures of diploid human foreskin fibroblast (HFF) or MRC-5 cells were grown in medium consisting of MEM(E) with 10% fetal bovine serum. Cells were passaged at 1:2 to 1:10 dilutions according to conventional procedures by using 0.05% trypsin plus 0.02% EDTA in a HEPES buffered salt solution (HBS) [Shipman, C., Jr., Proc. Soc. […] HFF and MRC-5 cells were passaged only at 1:2 dilutions. The Towne strain, plaque-purified isolate Po, of HCMV was kindly provided by Dr. Mark Stinski, University of Iowa. The KOS strain of HSV-1 was used in most experiments and was provided by Dr. Sandra K. Weller, University of Conn.
Stock HCMV was prepared by infecting HFF cells at a multiplicity of infection (m.o.i.) of <0.01 plaque-forming units (p.f.u.) per cell. Cell growth medium was changed every four days until cytopathology was evident in all cells (approximately 21 days). Supernatant fluids were retained as the virus stock.
Virus titers were determined using monolayer cultures of HFF cells for HCMV and monolayer cultures of BSC-1 cells for HSV-1 as described earlier [Prichard, M. N., et al., J. Virol. […] Briefly, HFF or BSC-1 cells were planted as described above in 96-well cluster dishes and incubated overnight at 37. degree. C. in a humidified 3% C02 -97% air atmosphere. The next day cultures were inoculated with HCMV or HSV-1 and serially diluted 1:3 across the remaining eleven columns of the 96-well plate. Cultures were incubated at 37. degree. C. for 2 hr to permit virus adsorption and then virus inoculum was replaced with 0.2 ml of fresh medium. Cultures were incubated for seven days for HCMV, two or three days for HSV-1, the medium was removed, and the cell sheets were stained with 0.1% crystal violet in 20% methanol.
HFF cells in 24-well cluster dishes were infected with approximately 100 p.f.u. of HCMV per cm^2 cell sheet using the procedures detailed above. Following virus adsorption, compounds dissolved in growth medium were added to duplicate wells in four to eight selected concentrations. After incubation at 37° C. for 7 to 10 days, cell sheets were fixed, stained with crystal violet and microscopic plaques enumerated as described above.
After virus adsorption, inoculum was replaced with 0.2 mL of fresh medium containing test compounds. The first row of 12 wells was left undisturbed and served as virus controls. Each well in the second row received an additional 0.1 mL of medium with test compound at three times the desired final concentration. The contents of the 12 wells were mixed by repeated pipetting and then serially diluted 1:3 along the remaining wells. In this manner, six compounds could be tested in duplicate on a single plate with concentrations from […]. Plates were incubated at 37° C. for seven days, subjected to one cycle of freezing and thawing; aliquots from each of the eight wells of a given column were transferred to the first column of a fresh 96-well monolayer culture of HFF cells. Contents were mixed and serially diluted 1:3 across the remaining eleven columns of the secondary plate. Each column of the original primary plate was diluted across a separate plate in this manner. Cultures were incubated, plaques were enumerated, and titers calculated as described above.
(§2) Dose-response relationships were constructed by linearly regressing the percent inhibition of parameters derived in the preceding sections against logarithm 10 drug concentrations. […] Samples containing positive controls (acyclovir for HSV-1 and ganciclovir for HCMV) were used in all assays.

The subject of series [2] is herpes simplex virus type 1 (HSV-1). Nature of the series: HSV-1 ELISA in BSC-1 cells. Type of series: cell-based, KOS strain. The note with it: read-out: HSV-1. The procedure:
as §1
High titer HSV-1 stocks were prepared by infecting BSC cells at an m.o.i. of <0.1 as detailed previously [Turk, S. R., et al., Antimicrob.
Ninety-six-well cluster dishes were planted with 10,000 BSC-1 cells per well in 200 μL per well of MEM(E) plus 10% calf serum. After overnight incubation at 37° C., selected drug concentrations in quadruplicate and HSV-1 at a concentration of 100 p.f.u./well were added. Following a 3-day incubation at 37° C., medium was removed, plates were blocked, rinsed, and horse radish peroxidase conjugated rabbit anti-HSV-1 antibody was added. Following removal of the antibody containing solution, plates were rinsed, and then developed by adding 150 μL per well of a solution of tetramethylbenzidine as substrate. The reaction was stopped with H2SO4 and absorbance was read at 450 and 570 nm. Drug effects were calculated as a percentage of the reduction in absorbance in the presence of each drug concentration compared to absorbance obtained with virus in the absence of drug.
as §2

Series [3] has as its system human foreskin fibroblasts (HFF cells). Description: Cytotoxicity in stationary HFF cells (microscopic inspection of plaque assay cells). Format: cell-based. The note with it: read-out: HFF. The procedure:
(§3) Two different assays were used to explore cytotoxicity of selected compounds: (i) Cytotoxicity produced in stationary HFF cells was determined by microscopic inspection of cells used in plaque assays which were not affected by the virus [Turk, S. R., et al, Antimicrob.
as §2

The test system of series [4] is KB cells. Description: Cytotoxicity: KB cell growth (crystal violet staining). Format: cell-based. The note with it: Homo sapiens, read-out: KBgrv. The procedure: as §3
Briefly, 96-well cluster dishes were planted with KB cells at 3000-5000 cells per well. After overnight incubation at 37° C., test compound was added in quadruplicate at six to eight concentrations. Plates were incubated at 37° C for 48 hours in a CO2 incubator, rinsed, fixed with 95% ethanol, and stained with 0.1% crystal violet. Acidified ethanol was added and plates read at 570 nm in a spectrophotometer designed to read 96-well ELISA assay plates.
as §2

[5] abbreviates: Human alphaherpesvirus 1, 72 h, Table 1, fifty-percent inhibitory concentration, ELISA, BSC-1 cells, 3-day incubation.
[6] abbreviates: Table 1, cytotoxicity, stationary HFF cells, visual.
Setting [7] is: Table 1, cytotoxicity, KB cell growth, 48 hours.
[8] abbreviates: Human alphaherpesvirus 1, BSC-1, 72 h.

Consider `N#Cn1c(Br)c(CCc2ccc(Cl)cc2)c2ncnc(N)c21` [Compound 6f, 4-Amino-6-Bromo-5-cyano-7-(4-chlorophenethyl)pyrrolo[2,3]pyrimidine], for which the melting point was 280 °C (dec.).
As for `NC(=S)c1cn(CCCc2ccccc2)c2ncnc(N)c12` [Compound 1413, 4-amino-7-(3-phenyl)propyl-pyrrolo[2,3-d]pyrimidine-5-thiocarboxamide], the IC50 came out at 0.5 µM in series [1], 1.5 µM in series [2] (setting [5]), 32 µM in series [3] (setting [6]) and 38 µM in series [4] (setting [7]). Also, the “antiviral activity against HCMV (in words)” value (“antiviral activity” below) in series [1] is on record as “excellent activity”.
As to `CC(c1ccccc1)n1cc(C#N)c2c(N)ncnc21` (stereo not drawn) [Compound 1414, 4-amino-7-((2-phenyl)eth-2-yl)-pyrrolo[2,3-d]pyrimidine-5-carbonitrile], the IC50 in series [1] was 17 µM; in series [2] (setting [5]), 45 µM; in series [3] (setting [6]), > 120 µM; in series [4] (setting [7]), 20 µM.
Consider `NC(=O)c1cn(Cc2ccc(F)cc2)c2ncnc(N)c12` [Compound 1419, 4-amino-7-(4-fluorobenzyl)-pyrrolo[2,3-d]pyrimidine-5-carboxamide], for which the IC50 is 4.2 µM in series [1]; 16 µM in series [2] (setting [8]); 100 µM in series [3] (HFF); 50 µM in series [4] (KB, 48 h). In addition, in series [1], the “antiviral activity” value was “good to excellent antiviral activity”.
In the case of `NC(=O)c1cn(Cc2cccc([N+](=O)[O-])c2)c2ncnc(N)c12` [Compound 1421, 4-amino-7-(3-nitrobenzyl)-pyrrolo[2,3-d]pyrimidine-5-carboxamide], the IC50 in series [1] is 42 µM; in series [2] (setting [8]) it was > 100 µM; in series [3] (HFF) it was > 100 µM; in series [4] (KB, 48 h), > 100 µM.
`N#Cc1c(N)n(Cc2cccc([N+](=O)[O-])c2)c2ncnc(N)c12` [Compound 1425, 4,6-diamino-7-(3-nitrobenzyl)-pyrrolo[2,3-d]pyrimidine-5-carbonitrile]: the IC50 is 5 µM in series [1], > 100 µM in series [2] (setting [5]), > 100 µM in series [3] (setting [6]) and > 100 µM in series [4] (setting [7]). In series [1], the “antiviral activity” value is recorded as “Some activity”.
Regarding `Cc1ccc(Cn2c(Br)c(C(N)=O)c3c(N)ncnc32)cc1` [Compound 1427, 4-amino-6-bromo-7-(4-methylbenzyl)-pyrrolo[2,3-d]pyrimidine-5-carboxamide], the IC50 was > 10 µM in series [1]; > 100 µM in series [2] (setting [8]); > 10 µM in series [3] (HFF); > 100 µM in series [4] (KB, 48 h).
With `CC(c1ccccc1)n1cc(C(N)=O)c2c(N)ncnc21` (stereo not drawn) [Compound 1428, 4-amino-7-((2-phenyl)-eth-2-yl)-pyrrolo[2,3-d]pyrimidine-5-carboxamide], the IC50 was found to be 38 µM in series [1]; 50 µM in series [2] (setting [8]); 45 µM in series [3] (HFF); 20 µM in series [4] (KB, 48 h). Moreover, the “antiviral activity” value in series [1] is listed as “good to excellent antiviral activity”.
With `N#Cc1cn(Cc2ccc(F)cc2)c2ncnc(N)c12` [Compound 1429, 4-amino-7-(4-fluorobenzyl)-pyrrolo[2,3-d]pyrimidine-5-carbonitrile], the IC50 was 1.8 µM in series [1], 33 µM in series [2] (setting [5]), > 100 µM in series [3] (setting [6]) and 60 µM in series [4] (setting [7]). Besides, in series [1], the “antiviral activity” value was “good to excellent antiviral activity”.
As for `Cc1ccc(Cn2c(Br)c(C#N)c3c(=O)[nH]cnc32)cc1` [Compound 1441, 4-oxo-6-bromo-7-(4-methylbenzyl)-pyrrolo[2,3-d]pyrimidine-5-carbonitrile], the IC50 was 21 µM in series [1], 90 µM in series [2] (setting [5]), 100 µM in series [3] (setting [6]) and 16 µM in series [4] (setting [7]).
With `NC(=O)c1c(Br)n(Cc2ccc(Cl)cc2)c2ncnc(N)c12` [Compound 1443, 4-amino-6-bromo-7-(4-chlorobenzyl)-pyrrolo[2,3-d]pyrimidine-5-carboxamide], the IC50 in series [1] was > 10 µM; in series [2] (setting [8]), > 100 µM; in series [3] (HFF) it was > 10 µM; in series [4] (KB, 48 h) it was > 100 µM.
`N#Cc1cn(Cc2ccc(Cl)cc2)c2ncnc(N)c12` [Compound 1444, 4-amino-7-(4-chlorobenzyl)-pyrrolo[2,3-d]pyrimidine-5-carbonitrile]: the IC50 is 0.8 µM in series [1], 85 µM in series [2] (setting [5]), > 10 µM in series [3] (setting [6]) and > 100 µM in series [4] (setting [7]). In series [1], the “antiviral activity” value was “good to excellent antiviral activity”.
For `NC(=S)c1cn(CCc2ccccc2)c2ncnc(N)c12` [Compound 1446, 4-amino-7-(2-phenyl)ethyl-pyrrolo[2,3-d]pyrimidine-5-thiocarboxamide], the IC50 in series [1] was > 1 µM; in series [2] (setting [5]) it was 0.65 µM; in series [3] (setting [6]) it was 100 µM; in series [4] (setting [7]), 10 µM. Moreover, in series [1], the “antiviral activity” value is reported as “excellent activity”.
On to `N#Cc1c(N)n(Cc2cccc(N)c2)c2ncnc(N)c12` [Compound 1455, 4,6-diamino-7-(3-aminobenzyl)-pyrrolo[2,3-d]pyrimidine-5-carbonitrile], for which the IC50 was 6.5 µM in series [1], > 100 µM in series [2] (setting [5]), > 100 µM in series [3] (setting [6]) and 40 µM in series [4] (setting [7]). In series [1], the “antiviral activity” value is “Some activity”.
`N#Cc1c(Br)n(Cc2cccc(Cl)c2)c2ncnc(N)c12` [Compound 1461, 4-amino-6-bromo-7-(3-chlorobenzyl)-pyrrolo[2,3-d]pyrimidine-5-carbonitrile]: the IC50 in series [1], in series [2] (setting [5]), in series [3] (setting [6]) and in series [4] (setting [7]) was > 100 µM in each case.
Turning to `N#Cc1c(Br)n(Cc2ccc(Cl)c(Cl)c2)c2ncnc(N)c12` [Compound 1462, 4-amino-6-bromo-7-(3,4-dichlorobenzyl)-pyrrolo[2,3-d]pyrimidine-5-carbonitrile], the IC50 in series [1], in series [2] (setting [5]), in series [3] (setting [6]) and in series [4] (setting [7]) was > 100 µM in each case.
